Reference: patent US7862798B2, “Vitamin-targeted imaging agents” (Endocyte, Inc., priority 2002, dated 2011)
Entries after “also recorded” stand apart in the source; their conditions may differ.

Experiments:
FR-positive M109 tumors [1] = assay: Tissue distribution, subcutaneous M109 tumors (Example 11)
Experimental: The ability of ^99mTc-EC20 to target tumors in vivo was assessed using a FR-positive M109 model.
Four to five week-old mice (Balb/c strain) were purchased from Harlan Sprague Dawley, Inc. (Indianapolis, Ind.) and were maintained on a folate-free diet for a total of three weeks prior to the experiment. Syngeneic, FR-positive M109 tumor cells (1×10^6 per animal) were inoculated in the subcutis of the right axilla two weeks prior to the experiment.
Animals received an approximate 40 μmol/kg i.v. dose of test article in 100 μL volume via a lateral tail vein during brief diethyl ether anesthesia. Four hours post-injection, animals were sacrificed by CO2 asphyxiation, and dissected. Selected tissues were removed, weighed, and counted to determine ^99mTc distribution. CPM values were decay-corrected, and results were tabulated as % injected dose per gram of wet weight tissue.

Blood clearance = type: in vivo, Balb/c mice
Experimental: Animals used for this study were maintained on a folate-free diet (Harlan #TD-90261) for approximately three weeks prior to dose administration. […] Furthermore, previous studies have shown that mice placed on a folate-free diet for 3 weeks had maintained a safe serum folate level of 25±7 nM, which is slightly higher than the 9-14 nM concentration measurable in human serum.
The ^99mTc-EC20 solution was prepared on the day of use and had initially contained 100 μg of EC20 per milliliter. The solution was further diluted with sterile saline to prepare working stock solutions. The radiochemical purity of the product was estimated to be ˜94% by TLC. Each animal received a dose of 50 μg/kg EC20 (67 nmol/kg) in approximately 0.1 mL volume i.v. via the tail vein during brief diethyl ether anesthesia. At the designated times (see FIG. 8) post-injection, each animal was euthanized by CO2 asphyxiation, and blood was immediately collected by cardiac puncture.

FR-positive KB cells = assay: Time-dependent cell uptake; type: cell-based, human; parameters: time to half-maximal saturation point: dose or concentration left out as unconfirmed
Experimental: KB cells were seeded in 12-well Falcon plates and allowed to form sub-confluent monolayers overnight. Following one rinse with 1 mL of fresh FFRPMI/HIFCS, each well received 1 mL of FFRPMI/HIFCS containing 10 nM ^99mTc-EC20. Cells were incubated for predetermined times at 37° C. and then rinsed four times with 1 mL of ice-cold PBS, pH 7.4. The cell monolayers were dissolved in 0.5 mL of PBS, pH 7.4 containing 1% sodium dodecyl sulfate for 15 min at room temperature and then counted for radioactivity using a Packard gamma counter. The protein in each sample was quantitated using a BioRad DC Protein Assay kit, and cellular protein values were converted to cell number using the conversion factor of 2.23×10^−7 mg protein per cell. Final tabulated values were expressed in terms of molecules of EC20 per cell.
The kinetics of ^99mTc-EC20 uptake into FR-positive KB cells was quantitatively measured using this protocol.

[2] = test system: FR-positive M109 and FR-negative 4T1 tumors; assay: Tissue distribution, M109 and 4T1 tumor models (Example 15); type: in vivo, Balb/c mice; conditions: four hours post i.v. injection
Experimental: The protocols used in this example are similar to those described in Example 11.
Syngeneic, FR-positive M109 tumor cells (2×10^6 Po per animal) or FR-negative 4T1 cells (5×10^5 Po per animal) were inoculated subcutaneously in 100 μl of folate-free RPMI-1640 containing 1% syngeneic mouse serum.
Sixteen days after tumor cell inoculation, the animals were injected intravenously with 500 or 1800 nmoles/kg of EC20 for M109 tumor-bearing animals and 500 nmoles/kg of EC20 for 4T1 tumor-bearing animals (3 mice per dose group). All injections were in 100 μl volumes. […] Selected tissues (heart, lungs, liver, spleen, kidney, intestines, stomach, muscle, and tumor) were removed, weighed, and counted in an automatic gamma counter to determine ^99mTc distribution. Uptake of the radiopharmaceutical in terms of percentage injected dose of wet weight tissue (% ID/g) was calculated by reference to standards prepared from dilutions of the injected preparation.

[3] = HPLC speciation of the 99mTc-EC20 standard in saline over 6 hr; type: physicochemical; conditions: for Area Percent, Sum C and D / Area Percent, peak A (pertechnetate) / Area Percent, peak B (unknown) / Area Percent, peak C (isomer 1) / Area Percent, peak D (isomer 2): 99mTc-EC20 Standard
Experimental: The urinary HPLC speciation profile of ^99mTc-EC20 was obtained using Balb/c mice. Mice (˜20 g each) were injected with 1 mCi (6.7 nmol) of ^99mTc-EC20 via a lateral tail vein. Following a 1, 4, or 6 hour time period, groups of two mice were euthanized by CO2 asphyxiation and urine was collected. After filtration through a GV13 Millex filter, the radiochemical speciation was assessed using an HPLC system equipped with a Nova-Pak C18 3.9×150 mm column and a radiochemical detector. The system was isocratically eluted with 20% methanol containing 0.1% TFA at a flow rate of 1 mL/minute.
It was previously determined that the primary elimination route for ^111In-DTPA-Folate was via the urine. […] As shown in Table 4 (below), the radiochemical purity of the standard (sum of peaks C and D presumably corresponding to the syn and anti ^99mTc-EC20) remained constant at ˜93% over the 6 hr duration of this experiment. The amount of free ^99mTc in the standard (peak A) was ˜2%.

FR-positive M109 tumors [4] = assay: Gamma scintigraphy; type: in vivo, Balb/c mice; conditions: 4 hr after i.v. administration, M109 tumor-bearing Balb/c mouse
Experimental: Whole body image acquisition was performed for 1 minute at a count rate of 50-75,000 counts per minute using a Technicare Omega 500 Sigma 410 Radioisotope Gamma Camera. All data were analyzed using a Medasys MS-DOS-based computer equipped with Medasys Pinnacle software.

[5] = 4 hr post i.v., + Folic acid (100 equivalents)
[6] = 4 hr post intravenous injection

Question: Which Blood (FR-positive M109 tumors [1]; [5]) does the source give for `[NH-][C@@H](CNC(=O)CC[C@@H](NC(=O)c1ccc(NCc2cnc3nc(N)[nH]c(=O)c3n2)cc1)C(=O)O)C(=O)[N-][C@@H](CC(=O)O)C(=O)[N-][C@@H](C[S-])C(=O)O.[O]=[Tc+4]` [^99mTc-EC20] here?
Answer: Its Blood is 0.09 ± 0.02 % Injected Dose per Gram Tissue.

Question: And the Heart (FR-positive M109 tumors [1]; [5])?
Answer: The Heart was 0.08 ± 0.01 % Injected Dose per Gram Tissue.

Question: And the Intestine (FR-positive M109 tumors [1]; [5])?
Answer: The Intestine was 2.93 ± 1.49 % Injected Dose per Gram Tissue.

Question: What about the Kidney (FR-positive M109 tumors [1]; [5]) of the same compound?
Answer: The Kidney was 5.64 ± 2.13 % Injected Dose per Gram Tissue.

Question: What about the Liver (FR-positive M109 tumors [1]; [5]) of the same compound?
Answer: The Liver was 1.15 ± 0.22 % Injected Dose per Gram Tissue.

Question: What about the Lung (FR-positive M109 tumors [1]; [5]) of the same compound?
Answer: Its Lung is 0.31 ± 0.26 % Injected Dose per Gram Tissue.

Question: What about the Muscle (FR-positive M109 tumors [1]; [5]) of the same compound?
Answer: The Muscle was 0.06 ± 0.02 % Injected Dose per Gram Tissue.

Question: And the Spleen (FR-positive M109 tumors [1]; [5])?
Answer: The Spleen was 0.38 ± 0.33 % Injected Dose per Gram Tissue.

Question: And the Stomach (FR-positive M109 tumors [1]; [5])?
Answer: The Stomach was 3.35 ± 5.19 % Injected Dose per Gram Tissue.

Question: What about the Tumor (FR-positive M109 tumors [1]; [5]) of the same compound?
Answer: The Tumor was 0.45 ± 0.18 % Injected Dose per Gram Tissue.

Question: What about the Tumor/Blood (FR-positive M109 tumors [1]; [5]) of the same compound?
Answer: The Tumor/Blood was 4.70 ± 1.30.

Question: What about the Blood (FR-positive M109 tumors [1]; [6]) of the same compound?
Answer: The Blood was 0.34 ± 0.03 % Injected Dose per Gram Tissue.

Question: What about the Heart (FR-positive M109 tumors [1]; [6]) of the same compound?
Answer: Its Heart is 1.57 ± 0.26 % Injected Dose per Gram Tissue.

Question: And the Intestine (FR-positive M109 tumors [1]; [6])?
Answer: Its Intestine is 2.56 ± 0.61 % Injected Dose per Gram Tissue.

Question: What about the Kidney (FR-positive M109 tumors [1]; [6]) of the same compound?
Answer: The Kidney was 138 ± 12.4 % Injected Dose per Gram Tissue.

Question: What about the Liver (FR-positive M109 tumors [1]; [6]) of the same compound?
Answer: The Liver was 3.56 ± 0.25 % Injected Dose per Gram Tissue.

Question: What about the Lung (FR-positive M109 tumors [1]; [6]) of the same compound?
Answer: The Lung was 2.22 ± 0.63 % Injected Dose per Gram Tissue.

Question: And the Muscle (FR-positive M109 tumors [1]; [6])?
Answer: The Muscle was 0.67 ± 0.20 % Injected Dose per Gram Tissue.

Question: And the Spleen (FR-positive M109 tumors [1]; [6])?
Answer: Its Spleen is 0.95 ± 0.15 % Injected Dose per Gram Tissue.

Question: And the Stomach (FR-positive M109 tumors [1]; [6])?
Answer: The Stomach was 1.45 ± 0.55 % Injected Dose per Gram Tissue.

Question: What about the plasma half life (Blood clearance; 50 μg/kg EC20 i.v., Balb/c mouse) of the same compound?
Answer: Its plasma half life is ~4 min.

Question: And the “injected dose remaining in circulation” value (Blood clearance; after four hours, blood assumed 5.5% of body mass)?
Answer: Its value is “less than 0.2%”.

Question: And the “time to half-maximal cell association” value (FR-positive KB cells; 10 nM, 37° C.)?
Answer: Its value is 9 min.

Question: What about the “molecules of EC20 cell-associated at steady state” value (FR-positive KB cells; 10 nM, 37° C., KB cells) of the same compound?
Answer: Its value is “approximately 3.2 million”.

Question: And the “time to steady-state uptake” value (FR-positive KB cells; 10 nM, 37° C., KB cells)?
Answer: The value was “within two hours”.

Question: And the “time to half-maximal saturation point” value (FR-positive KB cells; 10-fold higher concentration)?
Answer: The value was 37 s.

Question: What about the “uptake in FR-negative 4T1 tumors lower than in FR-positive M109 tumors” value [2] of the same compound?
Answer: Its value is 7.6 fold.

Question: What about the “uptake in normal tissues, except kidney” value [2] of the same compound?
Answer: Its value is “low”.

Question: And the “Area Percent, Sum C and D” value ([3]; 0 hr)?
Answer: The value was 93.5 Area Percent.

Question: What about the “Area Percent, peak A (pertechnetate)” value ([3]; 0 hr) of the same compound?
Answer: The value was 2 Area Percent.

Question: What about the “Area Percent, peak B (unknown)” value ([3]; 0 hr) of the same compound?
Answer: Its value is 4.5 Area Percent.

Question: What about the “Area Percent, peak C (isomer 1)” value ([3]; 0 hr) of the same compound?
Answer: The value was 15.5 Area Percent.

Question: What about the “Area Percent, peak D (isomer 2)” value ([3]; 0 hr) of the same compound?
Answer: The value was 78 Area Percent.

Question: And the “Area Percent, Sum C and D” value ([3]; 1 hr)?
Answer: The value was 93.4 Area Percent.

Question: And the “Area Percent, peak A (pertechnetate)” value ([3]; 1 hr)?
Answer: Its value is 2.1 Area Percent.

Question: What about the “Area Percent, peak B (unknown)” value ([3]; 1 hr) of the same compound?
Answer: Its value is 4.5 Area Percent.

Question: And the “Area Percent, peak C (isomer 1)” value ([3]; 1 hr)?
Answer: Its value is 15.7 Area Percent.

Question: What about the “Area Percent, peak D (isomer 2)” value ([3]; 1 hr) of the same compound?
Answer: The value was 77.7 Area Percent.

Question: What about the “Area Percent, Sum C and D” value ([3]; 6 hr) of the same compound?
Answer: The value was 93.4 Area Percent.

Question: And the “Area Percent, peak A (pertechnetate)” value ([3]; 6 hr)?
Answer: Its value is 1.8 Area Percent.

Question: And the “Area Percent, peak B (unknown)” value ([3]; 6 hr)?
Answer: The value was 4.8 Area Percent.

Question: And the “Area Percent, peak C (isomer 1)” value ([3]; 6 hr)?
Answer: The value was 15.9 Area Percent.

Question: And the “Area Percent, peak D (isomer 2)” value ([3]; 6 hr)?
Answer: The value was 77.5 Area Percent.

Question: What about the “radiochemical purity of the standard (sum of peaks C and D)” value ([3]; constant over the 6 hr duration, saline solution) of the same compound?
Answer: The value was ~93%.

Question: And the “free 99mTc in the standard (peak A)” value ([3]; saline solution)?
Answer: Its value is ~2%.

Question: And the “whole-body gamma image, localization of radiotracer” value (FR-positive M109 tumors [4])?
Answer: The value was “localizes the gamma radiation to the two kidneys (K) and the M109 tumor mass; also recorded: Only the kidneys (K) and tumor (T) exhibit significant accumulation”.
